Reference: US7816374B2, “Method of treating neutrophil-related diseases with topical anesthetics” (Mayo Foundation for Medical Education and Research, priority 2000, dated 2010)
Several values for one entry are separate records, joined by “and”; a condition that tells them apart may be missing. Equal values may be shown once. Entries after “also recorded” stand apart in the source; their conditions may differ.

Key:
[1] = system: neutrophils; experiment: Neutrophil extracellular superoxide production (cytochrome c reduction plate assay); type: cell-based, human; conditions: for stimulation of neutrophils to release extracellular superoxide: stimulus screen, G-CSF 5 ug/mL, IFN-γ 100 ng/mL, 1 ug/mL, IL-8 0.5, 1 and 10 ng/mL, LTB4 100 nM and 1 uM
Experimental: Neutrophils were purified from heparinized venous blood of normal volunteers by sedimentation through a cushion of 1.085 gm/ml Percoll made in PIPES buffer, pH 7.4, supplemented with 50 mM NaCl, 5 mM KCl, 25 mM NaOH, and 5.4 mM glucose) and centrifuged at 2,000 rmp in a Beckman CS-6KR centrifuge for 30 minutes with no brake. Plasma, mononuclear cells, and Percoll layers were removed and the erythrocytes were lysed by osmotic shock.
The superoxide production was measured using cytochrome c reduction in a plate assay at a concentration of 50,000 neutrophils/well and was done in duplicate.
(§1) Neutrophils were isolated in a Percoll gradient to remove PBMC.
The extracellular superoxide assay (Cytochrome C method) was performed as follows: 1) The wells of a 96-well plate were blocked with 50 ul of 1% HSA for at least 2 hours at 37° C. 2) The Cytochrome C mix (#C-2506, Sigma, St. Louis, Mo.) was prepared as follows: 2.4 mgs of Cytochrome C was resuspended in 1 mL HBSS/HEPES (pH 7.4). One mL of CytoC mix was required for every 0.5×10^6 cells used in the assay. 3) The blocked cells of the 96 well plate were washed twice with 200 μL saline. 4) 4× stimulus and inhibitor stocks were prepared HBSS/HEPES. The cells were resuspended in CytoC mix to 0.5×10^6 cells/mL and kept on ice until ready for use. 5) The final volume in all wells was 200 μL: 100 μl cell/CytoC mix suspension per well (0.05×10^6 cells/well); 50 μL stimulus (if present) per well and 50 μL inhibitor (if present) per well. If stimulus and/or inhibitor was not required for a well, the volume was made up with HBSS/HEPES so that the total volume in the well was 200 μL. 6) Stimuli, inhibitors and cells were added to the wells in the following order: 1) media filler; 2) inhibitors; 3) cells; and 4) stimuli. 7) The 96 well plate was placed in a ThermoMax plate reader and the OD550 was read at 37° C. The plate was read at time 0 and then every 10 minutes for 1 hour, then every 30 minutes for 3 hours. 8) The concentration of superoxide released was calculated by using the following formula to calculate the nmol of Cytochrome C reduced: 19.1*[OD550(time x)−OD550(time 0)]/0.05=nmol Cytochrome C reduced per 1×10^6 cells=nmol superoxide released per 1×10^6 cells.

[2] = Serum concentration after lidocaine nebulization (PARI II device); type: in vivo, human; conditions: nebulization of up to 375 mg over 10 minutes; four normal subjects and four asthma patients; >1 μg/ml in only one patient out of eight
Text: Scott, D. B. et al., Br J Anaesth. 48:899-902 (1976); Chinn, W. M. et al., Chest 71:346-348 (1977).

[3] = cited from earlier work
[4] = Clinical trial of nebulized lidocaine in severe asthma; type: in vivo, human; conditions: twenty patients with severe asthma; 100 mg nebulized lidocaine x4 qd
[5] = Patient with inflammatory bowel disease-associated severe bronchitis treated with nebulized lidocaine; type: in vivo, human; conditions: nebulized lidocaine 100 mg four times daily; within six weeks; one patient
Experimental: A patient with inflammatory bowel disease-associated severe bronchitis who had symptoms of copious sputum production (in excess of 150 mi/day), daily cough and chest tightness, and shortness of breath on exertion, who had not responded to topical or systemic glucocorticoids and multiple rounds of antibiotics over an 18 month period was treated. Lamos, J. et al., Arch Internationales De Pharmacodynamie et de Therapie 331:179-188 (1996).

[6] = system: neutrophils; conditions: in vitro, cited from earlier work
[7] = system: neutrophils; experiment: Lactoferrin release from stimulated neutrophils (ELISA); type: cell-based, human; conditions: FIG. 7
Experimental: as §1
To measure lactoferrin, an ELSIA kit was purchased from Calbiochem (San Diego, Calif.) and the protocols and procedures were followed therein.
When neutrophils begin to invade injured tissue, feedback control of inflammation begins with degranulation of neutrophils and massive release of lactoferrin. The amount of lactoferrin released from neutrophils stimulated with PMA, TNF-α and PAF was measured.

[8] = Case report of patient with bronchitis treated with lidocaine inhalation; type: in vivo, human
Experimental: The patient was a person first seen in 1996 with a six month history of harsh cough affecting their both during the night and the day. Copious (about 50 ml per day), thick, yellow to white sputum was produced. They were often awakened at night with chest heaviness and dyspnea. […] When initially evaluated, the patient was receiving prednisone, 30 mg every other day, Salmeterol twice daily and Asthmacort four inhalations four times a day.

[9] = system: eosinophils; conditions: in vitro; Okada et al. 1998; cited from earlier work
[10] = system: sputum neutrophilia; experiment: Sputum cell counts before and after four weeks of nebulized lidocaine in patients with chronic protracted post-viral or post-irritant cough; type: in vivo, human; set-up: wbc before / wbc after / eos before / eos after: unit not given here
Experimental: Yamamoto, C. et al., Chest 112:505-510 (1997); Peleman, R. A. et al., Eur. Resp. Journal 13:839-843 (1999); Gibson, P. G. et al., Thorax 44:693-699 (1989). Induction, collection, and processing of sputum is performed according to the method of Pin and Hargreave. Briefly, if the patient is unable to spontaneously produce a 5 cc sputum sample, sputum induction is performed using ultrasonically nebulized hypertonic saline administered in progressive 2 minute increments followed by attempts to cough and produce sputum. The nebulization continues until a total of 12 minutes have elapsed or the patient produces 5 cc of sputum. The initial specimen is collected in a 50 ml conical tube, vortexed and 1 cc of the sputum is aspirated and placed on ice for cytokine analysis. The remaining volume is weighed, and mixed with equal volumes of dithiothreitol, vortexed, then rocked for 15 min at 37° C. with frequent vortexing. The specimen is analyzed for total and differential cell counting.

[11] = six patients, after four weeks of nebulized lidocaine

Molecule: TNF-α
- stimulation of neutrophils to release extracellular superoxide [1]: stimulated; also recorded: considerable superoxide anion is released

Molecule: CCCCCCCCCCCCCC(=O)O[C@@H]1[C@@H](C)[C@@]2(O)[C@@H](C=C(CO)C[C@]3(O)C(=O)C(C)=C[C@@H]23)[C@@H]2C(C)(C)[C@]12OC(C)=O [PMA, phorbol-myristate acetate]
- stimulation of neutrophils to release extracellular superoxide [1]: stimulated; also recorded: stimulates superoxide anion very considerably

Molecule: IL-8: interleukin 8
- stimulation of neutrophils to release extracellular superoxide [1]: did not stimulate

Molecule: f-met-leu-phe [fMLP]
- stimulation of neutrophils to release extracellular superoxide [1]: stimulated

Molecule: IFN-γ: interferon gamma
- stimulation of neutrophils to release extracellular superoxide [1]: did not stimulate

Molecule: CCN(CC)CC(=O)Nc1c(C)cccc1C [lidocaine, (2-diethylamino)-N-(2,6-dimethylphenyl)acetamide]
- TNF-α stimulated neutrophil superoxide anion production ([1]; 3 mM lidocaine, TNF-alpha stimulus, 50,000 neutrophils/well): virtually totally suppresses; also recorded: almost totally inhibited
- C5a stimulated neutrophil superoxide anion production ([1]; C5a stimulus, FIGS. 6A and 6B): suppresses
- stimulation of neutrophils (extracellular superoxide) by stimuli ([1]; all stimuli with the exception of PMA): inhibits the stimulation of neutrophils in a dose dependent manner
- PMA induced neutrophil superoxide anion production ([1]; lidocaine, PMA stimulus): does not alter this production; also recorded: not inhibited
- superoxide anion production by unstimulated neutrophils ([1]; presence and absence of 3 mM lidocaine, no stimulus): no superoxide anion is produced
- serum concentration [2]: 1500 ng/mL
- systemic glucocorticoid use in steroid-dependent asthma ([3]; lidocaine inhalation, most adult and pediatric patients): reduces or eliminates systemic glucocorticoids
- topical glucocorticoid use in mild to moderate asthma ([3]; nebulized lidocaine): able to replace topical glucocorticoids
- peripheral blood eosinophils when topical glucocorticoids were withdrawn ([3]; nebulized lidocaine, mild to moderate asthma): prevented the rise
- patients able to discontinue or reduce the use of oral GC by 80% [4]: seventeen
- side effects [4]: minimal side effects
- cough and chest tightness [5]: disappeared
- sputum volume [5]: diminished to zero
- activation of neutrophils by G-CSF, TNF-α and GM-CSF [6]: inhibits activation
- neutrophil aggregation and degranulation [6]: Inhibition
- depolarization of neutrophil membrane potential, superoxide generation and chemiluminescence response in neutrophils ([6]; concentration-dependent manner): inhibits
- lactoferrin release in PMA stimulated neutrophils ([7]; PMA stimulus): may have an effect
- lactoferrin release in neutrophils stimulated with TNF ([7]; TNF stimulus): significantly inhibits
- patient-reported course on continued therapy ([8]; lidocaine by inhalation for the following year, occasional antibiotics): continued improvement
- sputum volume and cough ([8]; lidocaine by inhalation, over a span of three weeks, one patient): diminished strikingly
- cytokine-stimulated eosinophilopoesis and prolongation of survival, activation, respiratory burst, and degranulation of eosinophils [9]: inhibit
- cough [10, 11]: clearing of their cough
- sputum neutrophils [10, 11]: reduction of sputum neutrophils
- pmn after ([10]; sputum PMN of individual patients after four weeks of nebulized lidocaine): 568,400 and 352,000 and 617,760 and 79,900 and 1,612,800 and 551,200
- pmn before ([10]; sputum PMN of individual patients before lidocaine treatment (baseline)): 1,032,200 and 3,569,000 and 1,566,000 and 2,772,000 and 4,093,400 and 1,256,250
- wbc after ([10]; sputum WBC of individual patients after four weeks of nebulized lidocaine): 1,160,000 and 1,600,000 and 2,808,000 and 85,000 and 4,480,300 and 2,120,000
- wbc before ([10]; sputum WBC of individual patients before lidocaine treatment (baseline)): 3,330,000 and 6,050,000 and 2,700,000 and 4,760,000 and 2,512,500
- eos after ([10]; sputum eosinophils of individual patients after four weeks of nebulized lidocaine): 0 (2×) and 96,000 and 2,808 and 134,400 and 42,500
- eos before ([10]; sputum eosinophils of individual patients before lidocaine treatment (baseline)): 0 (3×) and 484,000 and 12,798 and 1,384,200

Molecule: GM-CSF: granulocyte macrophage colony stimulating factor
- stimulation of neutrophils to release extracellular superoxide [1]: stimulated

Molecule: CCCCC/C=C\C[C@@H](O)/C=C/C=C/C=C\[C@@H](O)CCCC(=O)O [LTB4, leukotriene B4]
- stimulation of neutrophils to release extracellular superoxide [1]: did not stimulate

B1: C5a: component of the complement system (protein, UniProt P01031 678-751, looked up)
C5a anaphylatoxin: TLQKKIEEIAAKYKHSVVKKCCYDGACVNNDETCEQRAARISLGPRCIKAFTECCVVASQLRANISHKDMQLGR
modifications: C5a anaphylatoxin
notes: component of the complement system
- stimulation of neutrophils to release extracellular superoxide [1]: stimulated; also recorded: stimulates superoxide anion production

B2: G-CSF: granulocyte colony stimulating factor (protein, UniProt P09919 31-207, looked up)
Granulocyte …: TPLGPASSLPQSFLLKCLEQVRKIQGDGAALQEKLVSECATYKLCHPEELVLLGHSLGIPWAPLSSCPSQALQLAGCLSQLHSGLFLYQGLLQALEGISPELGPTLDTLQLDVADFATTIWQQMEELGMAPALQPTQGAMPAFASAFQRRAGGVLVASHLQSFLEVSYRVLRHLAQP
- stimulation of neutrophils to release extracellular superoxide [1]: did not stimulate
